According to US20260263550A1, “METHODS AND COMPOSITIONS FOR TREATING, PREVENTING, INHIBITING, AMELIORATING OR DELAYING THE ONSET OF OPHTHALMIC CONDITIONS” (Stealth BioTherapeutics Inc., priority 2021, published 2026):

Tests used:
[1] = Uptake in plasma and compartments of the eye in a rabbit model (subcutaneous or topical ocular dosing); assay type: in vivo, Dutch Belted Rabbits
Protocol: 3 mg/mL elamipretide or compound of Formula IIa in saline was dosed subcutaneously at 1.5 mg/kg. A 3 mg/mL elamipretide or compound of Formula IIa formulation was prepared by dissolving 81 mg elamipretide in a total volume of 27 mL of sterile saline and mixing well. • (ii) Groups 2 & 4: Topical Ocular Formulation for administration of elamipretide or compound of Formula IIa
For each preparation (i.e., elamipretide or compound of Formula IIa, sodium chloride (105 mg) was dissolved in 16 mL of water for injection with mixing. With mixing, 82.8 mg of sodium phosphate monobasic, monohydrate was then added. With mixing, 0.400 mL of a 5 mg/mL benzalkonium chloride solution in water (to be prepared by diluting 0.100 mL of a 50% benzalkonium chloride solution in water to 10 mL with water for injection) was then added. Two hundred (200) mg of elamipretide or compound of Formula IIa was then added with mixing and the formulation pH was adjusted to 5.8 (+/−0.1) with 1 M sodium hydroxide in water solution. The final volume of the formulation was then be brought to 20 mL using water for injection. Each formulation (elamipretide or compound of Formula IIa) was used for topical ocular administration at a dose of 50 μL/eye OU.
A total of 48 male Dutch Belted Rabbits were used in the study. Each animal was approximately 2 kg.
For subcutaneous administration, rabbits were dosed via a single subcutaneous injection of 1.5 mg/kg and at the scruff of the neck between the shoulder blades using a syringe with an attached 27G×½ inch needle (or similar). The site of injection was checked to ensure no leakage of dose immediately following administration.
For topical administration, a calibrated Gilson positive displacement pipette was used to administer 50 μL of formulation onto the globe the eye while the lower eyelid was pulled away from the globe. Administration was twice daily (i.e., BID). Doses were administered to both eyes, every 8 to 12 hours for 11 total doses.
Terminal blood samples (approximately 6 mL) were collected from two animals/group/timepoint via the central ear artery at approximately 0.5, 1, 2, 4, 8, and 24 hours postdose. Blood samples were collected into tubes containing K2EDTA as the anticoagulant and inverted several times to ensure adequate mixing of blood and anticoagulant and placed on ice. Within 30 min of collection, samples were centrifuged to harvest plasma and stored at −80° C. until analyzed.
Following blood collection, designated animals were euthanized by barbiturate overdose. Following euthanasia, both eyes of each rabbit were harvested and dissected for collection of ocular tissue and fluid. Optic nerve and retina were collected from Group 1 and 3 animals, and aqueous humor, retina, conjunctiva, cornea, sclera, and optic nerve were collected from Group 2 and 4 animals. Following dissection, all fluids and tissues were placed in pre-tared tubes, weight collected, and then flash frozen on dry ice and placed in a freezer at −80° C. or lower until analyzed. Concentrations of test article in plasma in the ocular tissues (ng/g tissue) and fluids (ng/mL fluid) were determined utilizing a method previously developed by the CRO.

[2] = test system: iPSC-derived RPE cells from AMD donors; experiment: Cell viability assay on nitrite-modified ECM (Real Time-Glo MT Cell Viability Assay); assay type: cell-based, human; settings: 10, 100, 1000 nM; 24 hours; versus vehicle-treated cells; FIG. 8J, *p<0.05
Protocol: (§1) General. iPSC-derived RPE were generated from AMD patients (2 atrophic; 1 exudative) and patients with no history of AMD (n=3). To test the therapeutic efficacy of elamipretide and compound of Formula IIa, cell viability was analyzed on nitrite-modified extracellular matrix (ECM), a typical modification of aged Bruch's membrane, for 24 hrs. DNA microarrays were used to elucidate gene expression in AMD-derived RPE cultured on nitrite-modified ECM.
Preparation of RPE cell-derived ECM and nitrite-modified ECM RPE cell-derived ECM plates were prepared from ARPE-19 cells as described in Wang et al., Curr Eye Res. 30:691-702 (2005); Fields et al. (2017); and Moreira et al., Transl Vis Sci Technol. 4:10 (2015). ECM on 96-well plates were used to create two experimental plating surfaces (nontreated ECM and nitrite-modified ECM). Nitrite-modified ECM was prepared by adding 100 mM sodium nitrite to ECM followed by incubation at 37° C. for 7 days. Plates were then washed with DPBS and incubated with DPBS for 4 hours to completely remove the nitrite. […]
Cell viability was measured by Real Time-Glo MT Cell Viability Assay (Promega, Madison, WI, www.promega.com) according to the manufacturer's protocol. […] Luminescent signals were acquired using a BioTek FLx800 plate reader (BioTek).

[3] = test system: iPSC-derived RPE cells from AMD donors; experiment: Microarray analysis of gene expression on in vitro Bruch's membrane model; assay type: cell-based, human; settings: AMD-derived RPE on nitrite-modified ECM, 10, 100, 1000 nM, 24 hours
Protocol: as §1
Microarray analysis. iPSC-derived RPE cells from AMD donors (n=3; 2 atrophic with GA, 1 exudative) were treated with drug (elamipretide or compound of Formula IIa) as described below and cultured on an in vitro Bruch's membrane model for 24 hours.
• AMD donors only (n=3 individual donors) • Cells treated with elamipretide (also referred to as “309” in the figures) at 10 nM, 100 nM and 1000 nM • Cells treated with compound of Formula IIa (also referred to as “146c” in the figures) at 10 nM, 100 nM, 1000 nM
Microarray studies using Affymetrix GeneChip Human Clariom™ S Assay were performed as described in Gong et al. (2020).

[4] = test system: iPSC-derived RPE cells from AMD donors; experiment: Measurement of mitochondrial function (Seahorse XF Cell Mito Stress Test); assay type: cell-based, human; settings: 10, 100, 1000 nM, treatment began 24 hours prior to assay, FIGS. 8AA-8AL
Protocol: Measurement of mitochondrial function. Analysis of mitochondrial function was performed on live iPSC-derived RPE cells from AMD donors (n=3; 2 atrophic with GA, 1 exudative) treated with drug (elamipretide, compound of Formula IIa, or vehicle) as described below and iPSC-derived RPE cells from non-diseased controls (n=2) using the XFe96 Extracellular Flux Analyzer (Agilent Technologies, Santa Clara, California, www.agilent.com) and the Seahorse XF Cell Mito Stress Test (CMST) Kit (Agilent Technologies). iPSC-derived RPE cells were seeded onto a laminin-coated Seahorse XF plates and grown until confluent. Data were normalized by cell count. Drug treatments began 24 hours prior to assay. […]
Cells were stained with DAPI and counted by ImageJ software (National Institute of Health, Bethesda, Maryland, www.nih.gov). […] Oxygen consumption rate was detected under basal conditions followed by the sequential addition of oligomycin, carbonyl cyanide 4-(trifluoromethoxy) phenylhydrazone (FCCP), rotenone, and antimycin A. From these sequential additions, the following parameters can be derived: basal respiration, ATP production, maximal respiration, and spare respiratory capacity.

[5] = at 24 weeks of treatment; Pieramici & Ehlers, slide 15; cited from earlier work

With elamipretide [reference compound] the “concentration in plasma, elamipretide compared with compound of Formula IIa” value ([1]; SC 1.5 mg/kg single dose or topical eye drops BID, 11 doses, FIGS. 1A, 1B) was “roughly equivalent”, the “concentration accumulated in the retina, compared with the other test article” value ([1]; regardless of mode of administration (topical or subcutaneous), FIGS. 2A, 2B) was “much lower” and the “AMD-derived RPE cell viability on nitrite-modified ECM” value [2] was “significantly enhanced”. The “expression of complement regulatory genes including CFHR2” value ([3]; FIG. 8S) was “increase expression”, the “expression of complement component genes (C1R, C3, C4A) increased by nitration of ECM” value ([3]; FIGS. 8L-8P) was “reverse this trend” and the “expression of mitochondrial-related genes, such as CYP24A1 and GLS” value ([3]; FIGS. 8W-8Z) was “altered the expression”. For the same substance, the “mitochondrial function (ATP production; basal respiration; maximal respiration; spare respiratory capacity)” value [4] was “efficacy in improving mitochondrial function” and the “Average BCVA and LLVA in NCGA and HRD patients” value [5] was “improved significantly”.
